Data as given in patent US10844044B2 (Vanderbilt University, priority 2018, dated 2020).

biological target: WDR5 (Homo sapiens (Human), UniProt P61964); experiment: TR-FRET binding assay (displacement of 10mer-Thr-FAM probe from WDR5); settings: read-out: Ki for Inhibition of WDR5 by TR-FRET assay

| Compound | Ki [nM] |
| --- | --- |
| CCn1cc(-c2cc(CN3CCOC3=N)cc(C(=O)NCC3CCOCC3)c2)c(C(F)(F)F)n1 [Example 288, 3-(1-Ethyl-3-(trifluoromethyl)-1H-pyrazol-4-yl)-5-((2-iminooxazolidin-3-yl)methyl)-N-((tetrahydro-2H-pyran-4-yl)methyl)benzamide] | 8.7 |
| Cc1cc([C@@H](NC(=O)c2cc(CN3C[C@H](C)OC3=N)cc(-c3cccnc3C(F)(F)F)c2)C2CC2)ccc1F [Example 296, N—((S)-cyclopropyl(4-fluoro-3-methylphenyl)methyl)-3-(((S)-2-imino-5-methyloxazolidin-3-yl)methyl)-5-(2-(trifluoromethyl)pyridin-3-yl)benzamide] | 7 |
| Cc1cc([C@@H](NC(=O)c2cc(CN3CCSC3=N)cc(-c3ccc(F)cc3C#N)c2)C2CC2)ccc1F [Example 316] | 0.91 |
| N=C1SCCN1Cc1cc(C(=O)N[C@H](c2ccc(Cl)c(Cl)c2)C2CC2)cc(-c2ncc(F)cc2C(F)(F)F)c1 [Example 317, (S)—N-(Cyclopropyl(3,4-dichlorophenyl)methyl)-3-(5-fluoro-3-(trifluoromethyl)pyridin-2-yl)-5-((2-iminothiazolidin-3-yl)methyl)benzamide] | 0.28 |
| N=C1SCCN1Cc1cc(C(=O)N[C@H](c2ccc(F)c(F)c2)C2CC2)cc(-c2cccnc2C(F)(F)F)c1 [Example 318, (S)—N-(Cyclopropyl(3,4-difluorophenyl)methyl)-3-((2-iminothiazolidin-3-yl)methyl)-5-(2-(trifluoromethyl)pyridin-3-yl)benzamide] | 0.29 |
| CCn1cc(-c2cc(CN3CCSC3=N)cc(C(=O)NCc3ccc(=O)n(C)c3)c2)c(C(F)(F)F)n1 [Example 323, 3-(1-Ethyl-3-(trifluoromethyl)-1H-pyrazol-4-yl)-5-((2-iminothiazolidin-3-yl)methyl)-N-((1-methyl-6-oxo-1,6-dihydropyridin-3-yl)methyl)benzamide] | 1.8 |
| Cc1cc([C@@H](NC(=O)c2cc(CN3CCSC3=N)cc(-c3cn(C)nc3C(F)(F)F)c2)C2CC2)ncc1F [Example 326, (S)—N-(Cyclopropyl(5-fluoro-4-methylpyridin-2-yl)methyl)-3-((2-iminothiazolidin-3-yl)methyl)-5-(1-methyl-3-(trifluoromethyl)-1H-pyrazol-4-yl)benzamide] | < 0.1 |
| Cc1cc([C@@H](NC(=O)c2cc(Cn3cccc(F)c3=N)cc(-c3cc(C(F)(F)F)nn3C)c2)C2CC2)ccc1F [Example 345, (S)—N-(Cyclopropyl (4-fluoro-3-methylphenyl)methyl)-3-((3-fluoro-2-iminopyridin-1(2H)-yl)methyl)-5-(1-methyl-3-(trifluoromethyl)-1H-pyrazol-5-yl)benzamide] | 2.4 |
| Cc1cc([C@@H](NC(=O)c2cc(Cn3cc(F)ccc3=N)cc(-c3cn(C)nc3C(F)(F)F)c2)C2CC2)ccc1F [Example 353, (S)—N-(cyclopropyl(4-fluoro-3-methylphenyl)methyl)-3-((5-fluoro-2-iminopyridin-1(2H)-yl)methyl)-5-(1-methyl-3-(trifluoromethyl)-1H-pyrazol-4-yl)benzamide] | < 0.1 |

same assay, conditions: read-out: Ki for Inhibition of WDR5 by TR-FRET assay; TR-FRET, 10mer-Thr-FAM probe, WDR5-His tag 2 nM, pH 7.0

| Compound | Ki [nM] |
| --- | --- |
| Cc1cc(F)ccc1-c1cc(Cn2ccoc2=N)cc(C(=O)NCc2ccc(Cl)c(Cl)c2)n1 [Example 277, N-(3,4-Dichlorobenzyl)-6-(4-fluoro-2-methylphenyl)-4-((2-iminooxazol-3(2H)-yl)methyl)picolinamide] | > 33 |
| Cc1cc([C@@H](NC(=O)c2cc(CN3CCOC3=N)cc(-c3cn(CC(C)C)nc3C(F)(F)F)c2)C2CC2)ccc1F [Example 278, (S)—N-(Cyclopropyl(4-fluoro-3-methylphenyl)methyl)-3-((2-iminooxazolidin-3-yl)methyl)-5-(1-isobutyl-3-(trifluoromethyl)-1H-pyrazol-4-yl)benzamide] | 0.34 |
| CCn1cc(-c2cc(CN3CCOC3=N)cc(C(=O)NCC3CCCO3)c2)c(C(F)(F)F)n1 (stereo not shown) [Example 289, 3-(1-Ethyl-3-(trifluoromethyl)-1H-pyrazol-4-yl)-5-((2-iminooxazolidin-3-yl)methyl)-N-((tetrahydrofuran-2-yl)methyl)benzamide] | 31 |
| CCn1cc(-c2cc(CN3CCOC3=N)cc(C(=O)NCC3CCOC3)c2)c(C(F)(F)F)n1 (stereo not shown) [Example 290, 3-(1-Ethyl-3-(trifluoromethyl)-1H-pyrazol-4-yl)-5-((2-iminooxazolidin-3-yl)methyl)-N-((tetrahydrofuran-3-yl)methyl)benzamide] | 20 |
| Cc1cc([C@@H](NC(=O)c2cc(CN3C[C@@H](C)OC3=N)cc(-c3cccnc3C(F)(F)F)c2)C2CC2)ccc1F [Example 297, N—((S)-cyclopropyl(4-fluoro-3-methylphenyl)methyl)-3-(((R)-2-imino-5-methyloxazolidin-3-yl)methyl)-5-(2-(trifluoromethyl)pyridin-3-yl)benzamide] | 2.3 |
| CCOc1c(C(=O)N[C@H](c2ccc(F)c(C)c2)C2CC2)cc(Cn2ccoc2=N)cc1-c1cn(C)nc1C(F)(F)F [Example 304] | < 0.1 |
| N=C1SCCN1Cc1cc(C(=O)N[C@H](c2ccc(Cl)c(Cl)c2)C2CC2)cc(-c2cccnc2C(F)(F)F)c1 [Example 311, (S)—N-(Cyclopropyl(3,4-dichlorophenyl)methyl)-3-((2-iminothiazolidin-3-yl)methyl)-5-(2-(trifluoromethyl)pyridin-3-yl)benzamide] | 1.49 |
| Cc1cc([C@@H](NC(=O)c2cc(CN3CCSC3=N)cc(-c3cn(CC(C)C)nc3C(F)(F)F)c2)C2CC2)ccc1F [Example 313, (S)—N-(Cyclopropyl(4-fluoro-3-methylphenyl)methyl)-3-((2-iminothiazolidin-3-yl)methyl)-5-(1-isobutyl-3-(trifluoromethyl)-1H-pyrazol-4-yl)benzamide] | 1.2 |
| Cc1cc([C@@H](NC(=O)c2cc(CN3CCSC3=N)cc(-c3cn(C4CCCC4)nc3C(F)(F)F)c2)C2CC2)ccc1F [Example 314, (S)-3-(1-Cyclopentyl-3-(trifluoromethyl)-1H-pyrazol-4-yl)-N-(cyclopropyl(4-fluoro-3-methylphenyl)methyl)-5-((2-iminothiazolidin-3-yl)methyl)benzamide] | 4 |
| Cc1cc([C@@H](NC(=O)c2cc(CN3CCCSC3=N)cc(-c3cccnc3C(F)(F)F)c2)C2CC2)ccc1F [Example 315, (S)—N-(Cyclopropyl(4-fluoro-3-methylphenyl)methyl)-3-((2-imino-1,3-thiazinan-3-yl)methyl)-5-(2-(trifluoromethyl)pyridin-3-yl)benzamide] | 1 |
| CC(C)n1cc(-c2cc(CN3CCSC3=N)cc(C(=O)N[C@H](c3ccc(F)c(F)c3)C3CC3)c2)c(C(F)(F)F)n1 [Example 319, (S)—N-(Cyclopropyl(3,4-difluorophenyl)methyl)-3-((2-iminothiazolidin-3-yl)methyl)-5-(1-isopropyl-3-(trifluoromethyl)-1H-pyrazol-4-yl)benzamide] | 0.32 |
| Cc1cc([C@@H](NC(=O)c2cc(Cn3ccccc3=N)cc(-c3cc(C(F)(F)F)nn3C)c2)C2CC2)ccc1F [Example 346, (S)—N-(Cyclopropyl(4-fluoro-3-methylphenyl)methyl)-3-((2-iminopyridin-(2H)-yl)methyl)-5-(1-methyl-3-(trifluoromethyl)-1H-pyrazol-5-yl)benzamide] | 1.6 |
| Cc1cc([C@@H](NC(=O)c2cc(Cn3cc(F)ccc3=N)cc(-c3cccnc3C(F)(F)F)c2)C2CC2)ccc1F [Example 354, (S)—N-(cyclopropyl(4-fluoro-3-methylphenyl)methyl)-3-((5-fluoro-2-iminopyridin-1(2H)-yl)methyl)-5-(2-(trifluoromethyl)pyridin-3-yl)benzamide] | < 0.1 |
| Cc1ccnc(C(NC(=O)c2cc(Cn3ccn(C)c3=N)cc(-c3ccc(F)cc3C)n2)C2CC2)c1 (stereo not shown) [Example 356, N-(Cyclopropyl(4-methylpyridin-2-yl)methyl)-6-(4-fluoro-2-methylphenyl)-4-((2-imino-3-methyl-2,3-dihydro-1H-imidazol-1-yl)methyl)picolinamide] | 182 |
| COc1ccnc(CNC(=O)c2cc(Cn3ccn(C)c3=N)cc(-c3ccc(F)cc3C)n2)c1 [Example 357, 6-(4-Fluoro-2-methylphenyl)-4-((2-imino-3-methyl-2,3-dihydro-1H-imidazol-1-yl)methyl)-N-((4-methoxypyridin-2-yl)methyl)picolinamide] | 1.3 |
| Cc1cc(F)ccc1-c1cc(Cn2ccn(C)c2=N)cc(C(=O)NCc2ccc(Cl)c(F)c2)n1 [Example 359, N-(4-Chloro-3-fluorobenzyl)-6-(4-fluoro-2-methylphenyl)-4-((2-imino-3-methyl-2,3-dihydro-1H-imidazol-1-yl)methyl)picolinamide] | 8.7 |
| Cc1cc(F)ccc1-c1cc(Cn2ccn(C)c2=N)cc(C(=O)N[C@H](C)c2ccc(F)c(C(F)(F)F)c2)n1 [Example 360, (R)-6-(4-fluoro-2-methylphenyl)-N-(1-(4-fluoro-3-(trifluoromethyl)phenyl)ethyl)-4-((2-imino-3-methyl-2,3-dihydro-1H-imidazol-1-yl)methyl)picolinamide] | 1 |
| Cc1cc([C@@H](NC(=O)c2cc(CN3CCCOC3=N)cc(-c3cccnc3C(F)(F)F)c2)C2CC2)ccc1F [Example 362, (S)—N-(Cyclopropyl(4-fluoro-3-methylphenyl)methyl)-3-((2-imino-1,3-oxazinan-3-yl)methyl)-5-(2-(trifluoromethyl)pyridin-3-yl)benzamide] | 0.72 |
| Cc1cc([C@@H](NC(=O)c2cc(Cn3cnn(C)c3=N)cc(-c3cn(C)nc3C(F)(F)F)c2)C2CC2)ccc1F [Example 363, (S)—N-(Cyclopropyl(4-fluoro-3-methylphenyl)methyl)-3-((5-imino-1-methyl-1,5-dihydro-4H-1,2,4-triazol-4-yl)methyl)-5-(1-methyl-3-(trifluoromethyl)-H-pyrazol-4-yl)benzamide] | < 0.1 |
